Measured values: paper PMC9600589, “The Heptaprenyl Diphosphate Synthase (Coq1) Is the Target of a Lipophilic Bisphosphonate That Protects Mice against Toxoplasma gondii Infection” (mBio, 2022)

Columns and labels:
hTERT cells = assay: Cytotoxicity to hTERT cells (alamarBlue); conditions: for % Inhibition (cytotoxicity): hTERT cells
Experimental: The cytotoxicity was tested using an alamarBlue assay as described by Recher et al. ([67]).

T. gondii RH strain = assay: Acute lethal infection of mice with RH tachyzoites; format: in vivo, Swiss Webster mice; conditions: mice infected with 100 RH tachyzoites, intraperitoneal, daily for 10 days from 6 h postinfection
Experimental: (§1) At this point, live mice were inoculated with δ-luciferin for visualization of the infection in an IVIS illumination system ([34]).
Experiments were carried out as described previously ([49]) using 100 T. gondii tachyzoites of the RH strain to infect Webster mice. Drugs were dissolved in 10% kolliphor HS 15 and were inoculated intraperitoneally. Treatment was initiated 6 h after infection and administered daily for 10 days.

T. gondii RH-cLuc-GFP = assay: Dissemination of infection, luciferase-expressing RH parasites, in vivo imaging; parameters: species or system Swiss Webster mice; conditions: 1 mg/kg single daily dose for 8 days
Text: as §1

[1] = tested on: T. gondii RH parental strain; assay: Plaque assay measuring growth reversibility after drug removal; format: cell-based, Toxoplasma gondii; conditions: 7 days with 1 μM or 2 μM, then 7 days without drug
T. cruzi = tested on: T. cruzi; parameters: method as in PMID 24789335; conditions: cited from earlier work

CCCCCCCCCCn1cc[n+](CC(P(=O)([O-])O)P(=O)(O)O)c1 (stereo not shown) [BPH-1218]
toxicity against human fibroblast cells (hTERT cells): very little toxicity | % Inhibition (cytotoxicity) (hTERT cells; at 4X EC50 (concentration in μM in brackets)): 4.30 ± 2.31% | % Inhibition (cytotoxicity) (hTERT cells; at 10X EC50 (concentration in μM in brackets)): 10.28 ± 1.07% | ED50 (T. gondii RH strain): 0.69 mg/kg/day | effect on virulence and dissemination of the infection (T. gondii RH-cLuc-GFP): remarkable effect on both virulence and dissemination of the infection | reversibility of growth inhibition after drug removal [1]: irreversible | decrease in UQ9 biosynthesis (T. cruzi): 40%
